Data on five molecules can be found in patent US20220275025A1, “BONE REMODELING REGULATORY PEPTIDES AND APPLICATION THEREOF” (THE SECOND XIANGYA HOSPITAL OF CENTRAL SOUTH UNIVERSITY, priority 2019, published 2022).

In data set [1] the test system is Primary BMMs. Nature of the data set: Cytotoxicity experiment, CCK-8 kit. In kind it is cell-based, mouse. The note with it: 0, 1, 10, 100, 200, 500, 800, 1000, and 1500 μg/mL, 24 and 48 hours. On the procedure: (§1) 1) Bilateral femurs and tibias of wild-type female mice were aseptically isolated, and bone marrow cells were obtained by repeatedly washing bone marrow cavities with culture medium. After culturing in α-MEM complete medium containing M-CSF (30 ng/mL) for 24-hour, nonadherent cells were suctioned, centrifuged, and resuspended, and then cultured in the α-MEM complete medium containing M-CSF (30 ng/mL) for 3 days to obtain adherent mouse primary bone marrow mononuclear macrophages (osteoclast precursor cells). Osteoclast precursor cells were conducted by M-CSF (50 ng/mL) and RANKL (100 ng/mL) to obtain osteoclast and identified by TRAP staining (FIG. 1A). The expression of the collagen receptor OSCAR on osteoclast precursor cells and osteoclasts were determined by immunofluorescence (FIG. 1B) and Western blot (FIG. 1C).
1) Primary BMMs were cultured in vitro according to the method in Part 1 above, the A1-1/A1-4-1 collagen peptide was taken as an example for carrying out the cytotoxicity experiment. Primary BMMs were treated with different concentrations (0, 1, 10, 100, 200, 500, 800, 1000, and 1500 μg/mL) of collagen peptide for 24 and 48 hours, and the cytotoxicity was determined by CCK-8 kit.

The target in another data set is T1, mOSCAR (Mus musculus, UniProt Q8VBT3).
T1 construct: The extracellular domains of the mOSCAR were amplified by RT-PCR and inserted with expression vectors of His tag fusion proteins; made in house; host or cells: HEK293T cells
T1 sequence (Q8VBT3 19-231 limits assumed): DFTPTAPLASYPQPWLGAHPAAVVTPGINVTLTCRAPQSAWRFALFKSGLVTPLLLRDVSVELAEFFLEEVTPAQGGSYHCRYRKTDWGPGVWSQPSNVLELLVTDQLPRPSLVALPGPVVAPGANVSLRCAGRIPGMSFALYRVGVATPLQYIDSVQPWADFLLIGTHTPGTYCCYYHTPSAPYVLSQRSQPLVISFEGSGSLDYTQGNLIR
Nature of the data set: Solid-phase binding experiment of collagen peptides with mOSCAR-His fusion protein. As to conditions: peptide coated on 96-well plate, mOSCAR-His 37° C. 3 hours, absorbance at 492 nm. On the procedure:
1) The extracellular domains of the mOSCAR were amplified by RT-PCR and inserted with expression vectors of His tag fusion proteins. Then, the constructed vectors were transfected into HEK293T cells for expression, and mOSCAR-His fusion protein were purified by ion-exchange chromatography and molecular sieve chromatography.
2) Collagen peptides were dissolved with 10 mM acetic acid and wrapped to a 96-well microtitration plate overnight. After being sealed in phosphate buffer containing bovine serum albumin at room temperature for 1 hour, mOSCAR-His fusion protein was added and incubated at 37° C. for 3 hours. Then, horseradish peroxidase-labeled goat anti-mouse IgG antibody that capable of reacting specifically with His added and incubated at room temperature for 1 hour. The binding mOSCAR-His fusion protein was detected by O-phenylenediamine dihydrochloride. The reaction was terminated by 3 M H2SO4, and the absorbance at 492 nm was measured. It was confirmed that the type II collagen peptide (OSC^pep) and 4 segments of type I collagen peptides (A1-1, A1-2-1, A1-4-1, A1-5-3) could bind to the mOSCAR (FIG. 5).

The next data set deals with Primary pre-osteoblasts. Description: Osteoblast differentiation, ALP staining. The data set is classed as cell-based, mouse. On the procedure: 2) After skulls of the wild-type mice were aseptically isolated, cells were isolated by collagenase digestion and nucleated cells were obtained by density gradient centrifugation. Cells were induced to differentiate into osteoblasts by medium containing 10 mM β-sodium glycerophosphate, 50 μM vitamin C and 10^−7 M dexamethasone and identified by ALP staining (FIG. 1D). The expression of the collagen receptor OSCAR on pre-osteoblasts induced for 0th, 7th, 14th, 21st, and 35th day and MLO-Y4 bone cell lines was determined by immunohistochemistry (FIG. 1E) and Western blot (FIG. 1F).
4) Primary pre-osteoblasts were cultured in vitro according to the method in Part 1 above. Then, cells were treated with different concentrations of 5 segments of collagen peptides, and induced to differentiate into osteoblast by 10 mM […], 50 μM vitamin C and 10^−7 M dexamethasone at the same time. The effect of the collagen peptides on osteoblast differentiation was verified by ALP staining. It was confirmed that the bone remodeling regulatory peptides could inhibit osteoblast differentiation and bone formation at low concentration and promote osteoblast differentiation and bone formation at high concentration (FIG. 6C). […]

Data set [2] relates to Primary BMMs. Description: Osteoclast differentiation induced by M-CSF and RANKL, TRAP staining. The data set is classed as cell-based, mouse. On the procedure: as §1
2) Primary BMMs were treated with different concentrations of 5 collagen peptides, and induced to differentiate into osteoclasts by M-CSF and RANKL. The effect of different concentrations of collagen peptides on osteoclast differentiation was verified by TRAP staining. It was confirmed that all of the bone remodeling regulatory peptides could promote osteoclast differentiation at low concentration and inhibit osteoclast differentiation at high concentration (FIG. 6A).

Another data set concerns osteoclasts. Nature of the data set: Bone resorption of osteoclasts in peptide-primary BMMs-bone slice culture system, WGA staining. In kind it is cell-based, mouse. The text has this: 3) Different concentrations of bone remodeling regulatory peptides-primary BMMs-bone slice culture system was constructed by using the above-mentioned method, and the cells in the system were induced to differentiate into osteoclasts by M-CSF and RANKL at the same time. The effect of collagen peptides on bone resorption of osteoclasts was verified by wheat germ agglutinin (WGA) staining. It was confirmed that all of the bone remodeling regulatory peptides could promote bone resorption of osteoclasts at low concentration and inhibit bone resorption of osteoclasts at high concentration (FIG. 6B).

Square brackets hold non-standard residues; d marks the D form. Ends that are not written are not given here. Peptide text beside a SMILES is read from it. Hyp = O=C(O)[C@@H]1C[C@@H](O)CN1

On to `C[C@H](NC(=O)[C@H](Cc1ccccc1)NC(=O)CNC(=O)[C@H](C)NC(=O)[C@@H]1CCCN1C(=O)CNC(=O)[C@@H]1C[C@@H](O)CN1C(=O)[C@@H]1CCCN1C(=O)CN)C(=O)O` [A1-4-1, Gly-Pro-Pro-Gly-Pro-Ala-Gly-Phe-Ala] (H-GP[Hyp]GPAGFA-OH), for which the cytotoxicity entry in the data set with Primary BMMs [1] was “no toxic effect”. The “binding to the mOSCAR” value at mOSCAR is on record as “could bind”.

On to `C[C@H](NC(=O)CN)C(=O)N1C[C@H](O)C[C@H]1C(=O)NCC(=O)N1CCC[C@H]1C(=O)N[C@@H](CCC(N)=O)C(=O)NCC(=O)N[C@@H](Cc1ccccc1)C(=O)N[C@@H](CCC(N)=O)C(=O)O` [A1-1, Gly-Ala-Pro-Gly-Pro-Gln-Gly-Phe-Gln] (H-GA[Hyp]GPQGFQ-OH), for which the cytotoxicity entry in the data set on Primary BMMs [1] is given as “no toxic effect”. Besides, the “binding to the mOSCAR” value on mOSCAR is reported as “could bind”.

For the molecule “Gly-Ala-Pro-Gly-Ala-Pro-Gly-Ser-Gln (GA[Hyp]GA[Hyp]GSQ) [A1-2-1]”, in the data set with mOSCAR, the “binding to the mOSCAR” value is “could bind”.

As to “Gly-Pro-Pro-Gly-Ala-Thr-Gly-Phe-Pro (GP[Hyp]GATGFP) [A1-5-3]”, in the data set with mOSCAR, the “binding to the mOSCAR” value is on record as “could bind”.

Turning to “Gly-Ala-Pro-Gly-Pro-Ala-Gly-Phe-Ala (GA[Hyp]GPAGFA) [OSC^pep]”, in the data set with Primary pre-osteoblasts, the “concentration that inhibits osteoblast differentiation and bone formation” value was under 8000 µg/mL; the “concentration that promotes osteoblast differentiation and bone formation” value is at least 8000 µg/mL. In addition, the “concentration that inhibits osteoclast differentiation” value in the data set on Primary BMMs [2] (high concentration) is at least 8000 µg/mL. The “concentration that promotes osteoclast differentiation” value in the data set with Primary BMMs [2] (low concentration) was under 8000 µg/mL. In addition, in the data set with mOSCAR, the “binding to the mOSCAR” value is given as “could bind”. Besides, in the data set on osteoclasts (high concentration), the “concentration that inhibits bone resorption” value was at least 8000 µg/mL. In addition, the “concentration that promotes bone resorption” value with osteoclasts (low concentration) is under 8000 µg/mL.
